Converted amounts (≈) assume the structure as drawn. Like-named read-outs stand apart in the source and are kept apart here.
Columns and labels:
Format in all cases: cell-based
[1] = tested on: mouse fibroblast cell line L929; assay: In vitro cytotoxicity assay; conditions: 120 h, 6 × 10^3 cells/well, treated over five days
Procedure: (§1) In vitro cytotoxicity assay was performed as described by Richter et al. against the mouse fibroblast cell line L929 and the cervix carcinoma cell line KB3.1.

[2] = tested on: cervix carcinoma cell line KB3.1; assay: In vitro cytotoxicity assay; conditions: Homo sapiens, KB 3-1, 120 h, 6 × 10^3 cells/well, treated over five days
Procedure: as §1

[3] = tested on: Rhodotorula glutinis DSM10134; assay: MIC serial dilution assay; parameters: key: -: no inhibition observed under test conditions; conditions: highest concentration 67 or 100 µg/mL
Text: (§2) The minimum inhibitory concentration (MIC) for each compound was ascertained in a serial dilution assay in 96-well microtiter plates, as previously published by Kuhnert et al., using YM media for yeasts and filamentous fungi and BD^TM Difco™ Mueller Hinton Broth for bacteria.

Mucor plumbeus MUCL49355 = assay: MIC serial dilution assay; parameters: key: -: no inhibition observed under test conditions; conditions: highest concentration 67 or 100 µg/mL
Text: as §2

Mucor hiemalis DSM2656 = assay: MIC serial dilution assay; parameters: key: -: no inhibition observed under test conditions; conditions: highest concentration 67 or 100 µg/mL
Text: as §2

[4] = tested on: Micrococcus luteus DSM1790; assay: MIC serial dilution assay; parameters: key: -: no inhibition observed under test conditions; conditions: highest concentration 67 or 100 µg/mL
Text: as §2

Candida tenuis MUCL29892 = assay: MIC serial dilution assay; parameters: key: -: no inhibition observed under test conditions; conditions: highest concentration 67 or 100 µg/mL
Text: as §2

Candida albicans DSM1665 = assay: MIC serial dilution assay; parameters: key: -: no inhibition observed under test conditions; conditions: highest concentration 67 or 100 µg/mL
Text: as §2

Pichia anomala DSM6766 = assay: MIC serial dilution assay; parameters: key: -: no inhibition observed under test conditions; conditions: highest concentration 67 or 100 µg/mL
Text: as §2

[5] = tested on: Staphylococcus aureus DSM346; assay: MIC serial dilution assay; parameters: key: -: no inhibition observed under test conditions; conditions: highest concentration 67 or 100 µg/mL
Text: as §2

Bacillus subtilis DSM10 = assay: MIC serial dilution assay; parameters: key: -: no inhibition observed under test conditions; conditions: highest concentration 67 or 100 µg/mL
Text: as §2

hepatitis C virus (HCV) = assay: Inhibitory effects on HCV infectivity (Renilla luciferase reporter virus in Huh-7.5 cells); conditions: Huh-7.5 host cells
Procedure: Figure 4 Antiviral activity of 4-hydroxypleurogrisin (11). NC-Negative control, EGCG-Positive control. HCV assay was performed in triplicates and is presented as the mean ± standard deviation. The asterisk indicates statistically significant differences (* p ≤ 0.05, ** p ≤ 0.01, *** p ≤ 0.001). Huh-7.5 cells were inoculated with RLuc-Jc1 reporter viruses in the presence of 4-hydroxypleurogrisein. The inoculum was removed 4 h later and monolayers were washed three times with PBS and overlaid with fresh medium containing no inhibitors. Infected cells were lysed three days later, and reporter virus infection was determined by renilla luciferase activity (top). The cell viability was measured by determination of firefly luciferase (bottom), which is stably expressed in the target cells.
This assay was carried out as described previously by Mulwa et al.. Huh7.5 cells stably expressing Firefly luciferase (Huh7.5 Fluc) were cultured in Dulbecco’s modified minimum essential medium (DMEM, Life Technologies, Darmstadt, Germany) containing 2 mM L glutamine, 1 × minimum essential medium nonessential amino acids (MEM NEAA, Life Technologies), 100 μg/mL streptomycin, 100 IU/mL penicillin (Life Technologies), 5 μg/mL blasticidin and 10% fetal bovine serum. Cells were maintained in a 37 °C environment with 5% CO2 supply. Cells were infected with Jc1-derived Renilla reporter viruses in the presence or absence of compounds as described previously. Infected cells were lysed and then frozen at −80 °C for 1 h following measurements of Renilla and Firefly luciferase activities on a Berthold Technologies Centro XS3 Microplate Luminometer (Bad Wildbad, Germany) as indicators of viral genome replication and cell viability, respectively.

[6] = Yamadazyma tenuis, read-out: MIC
[7] = Hansenula anomala, read-out: MIC

Structure (SMILES)	IC50 [1]	IC50 [2]	MIC ([3]; read-out: MIC)	MIC (Mucor hiemalis DSM2656; read-out: MIC)	MIC ([4]; read-out: MIC)	MIC (Candida tenuis MUCL29892; [6])	MIC (Pichia anomala DSM6766; [7])	MIC ([5]; read-out: MIC)	MIC (Bacillus subtilis DSM10; read-out: MIC)	MIC [4]	MIC (Candida albicans DSM1665)	MIC (Mucor plumbeus MUCL49355)	further results
C[C@@H]1CO[C@@H]2C3=C(C(=O)C=CC3=O)[C@H]3OC(=O)[C@@H]4CC[C@H]5[C@@H]1CC[C@@]25[C@@H]34 [Compound 1, pleurotin]	7.5 µg/mL (≈ 21.2 µM)	8.5 µg/mL (≈ 24 µM)	16.7 µg/mL (≈ 47.1 µM)	8.3 µg/mL (≈ 23.4 µM)	66.7 µg/mL (≈ 188 µM)	25 µg/mL (≈ 70.5 µM)	66.7 µg/mL (≈ 188 µM)	33.3 µg/mL (≈ 94 µM)	50 µg/mL (≈ 141 µM)				MIC (Mucor plumbeus MUCL49355; read-out: MIC): 100 µg/mL (≈ 282 µM); MIC (Candida albicans DSM1665; read-out: MIC): 33.3 µg/mL (≈ 94 µM)
CC1COC2C3=C(CC4C(C(=O)O)CCC5C1CCC245)C(=O)C=CC3=O (stereo not drawn) [Compound 3, dihydropleurotinic acid, reference compound]	18 µg/mL (≈ 50.5 µM)	18 µg/mL (≈ 50.5 µM)	33.3 µg/mL (≈ 93.4 µM)	16.7 µg/mL (≈ 46.9 µM)		100 µg/mL (≈ 281 µM)	66.7 µg/mL (≈ 187 µM)	66.7 µg/mL (≈ 187 µM)	100 µg/mL (≈ 281 µM)	-	-		MIC (Mucor plumbeus MUCL49355; read-out: MIC): 100 µg/mL (≈ 281 µM)
C[C@@H]1CO[C@@H]2C3=C(C(=O)C=CC3=O)[C@@H](O)[C@H]3[C@H](C(=O)O)CC[C@H]4[C@@H]1CC[C@@]324 [Compound 6, 14-Hydroxy-dihydropleurotinic acid]	23 µg/mL (≈ 61.8 µM)	22 µg/mL (≈ 59.1 µM)								-	-	-	MIC [3]: -; MIC (Mucor hiemalis DSM2656): -; MIC (Candida tenuis MUCL29892): -; MIC (Pichia anomala DSM6766): -; MIC [5]: -; MIC (Bacillus subtilis DSM10): -
CC1COC2C3=C(CC4C(C(=O)O)CCC5C1(O)CCC245)C(=O)C=CC3=O (stereo not drawn) [Compound 5, 3-Hydroxy-dihydropleurotinic acid]	22 µg/mL (≈ 59.1 µM)	22 µg/mL (≈ 59.1 µM)	33.3 µg/mL (≈ 89.4 µM)			100 µg/mL (≈ 269 µM)			100 µg/mL (≈ 269 µM)	-	-	-	MIC (Mucor hiemalis DSM2656): -; MIC (Pichia anomala DSM6766): -; MIC [5]: -; activity in the HCV assay in vitro (hepatitis C virus (HCV)): devoid of any activity
C/C(=C\c1csc(C)n1)[C@@H]1C[C@@H]2O[C@]2(C)CCC[C@H](C)[C@H](O)[C@@H](C)C(=O)C(C)(C)[C@@H](O)CC(=O)O1 [Epothilone B, reference compound]	0.00062 µg/mL (≈ 0.00122 µM)	3e-05 µg/mL (≈ 5.91e-05 µM)											
CN(C)[C@@H]1C(O)=C(C(N)=O)C(=O)[C@@]2(O)C(O)=C3C(=O)c4c(O)cccc4[C@@](C)(O)[C@H]3[C@H](O)[C@@H]12 [Oxytetracycline, reference compound]					0.4 µg/mL (≈ 0.869 µM)			6.7 µg/mL (≈ 14.6 µM)					
C[C@@H]1CO[C@@H]2c3c(O)ccc(O)c3[C@H]3OC(=O)[C@@H]4CC[C@H]5[C@@H]1CC[C@@]25[C@@H]34 [Compound 2, leucopleurotin, reference compound]	2.2 µg/mL (≈ 6.17 µM)	2.8 µg/mL (≈ 7.86 µM)	33.3 µg/mL (≈ 93.4 µM)	33.3 µg/mL (≈ 93.4 µM)	66.7 µg/mL (≈ 187 µM)	100 µg/mL (≈ 281 µM)	66.7 µg/mL (≈ 187 µM)	33.3 µg/mL (≈ 93.4 µM)	25 µg/mL (≈ 70.1 µM)		-	-	

— article PMC6222660, “Antiviral 4-Hydroxypleurogrisein and Antimicrobial Pleurotin Derivatives from Cultures of the Nematophagous Basidiomycete Hohenbuehelia grisea” (Molecules : A Journal of Synthetic Chemistry and Natural …, 2018)
